Measurements from US20140213648A1, “METHODS OF INCREASING EPA BLOOD LEVELS” (priority 2012, published 2014).

Assay: 12-week placebo-controlled study: plasma fatty acid concentrations, ratios and proportions (GC/FID)
Type: in vivo, human
Details: for AA plasma concentration, change from baseline (LS mean (SE)) / AA plasma concentration, end-of-treatment (mean) / DHA plasma concentration, change from baseline (LS mean (SE)) / DHA plasma concentration, end-of-treatment (mean) / Linoleic plasma concentration, change from baseline (LS mean (SE)) / Linoleic plasma concentration, end-of-treatment (mean) / Oleic plasma concentration, change from baseline (LS mean (SE)) / Oleic plasma concentration, end-of-treatment (mean) / Palmitic plasma concentration, change from baseline (LS mean (SE)) / Palmitic plasma concentration, end-of-treatment (mean) / Proportion of monounsaturated fatty acids to total fatty acids in plasma, change from baseline (LS mean (SE)) / Proportion of monounsaturated fatty acids to total fatty acids in plasma, end-of-treatment (mean (SD)) / Proportion of saturated fatty acids to total fatty acids in plasma, change from baseline (LS mean (SE)) / Proportion of saturated fatty acids to total fatty acids in plasma, end-of-treatment (mean (SD)) / Proportion of total omega-3 fatty acids to total fatty acids in plasma, change from baseline (LS mean (SE)) / Proportion of total omega-3 fatty acids to total fatty acids in plasma, end-of-treatment (mean (SD)) / Proportion of total omega-6 fatty acids to total fatty acids in plasma, change from baseline (LS mean (SE)) / Proportion of total omega-6 fatty acids to total fatty acids in plasma, end-of-treatment (mean (SD)) / Ratio of AA/EPA in plasma, change from baseline (LS mean (SE)) / Ratio of AA/EPA in plasma, end-of-treatment (mean) / Ratio of n-3/n-6 FA in plasma, change from baseline (LS mean (SE)) / Ratio of n-3/n-6 FA in plasma, end-of-treatment (mean) / Stearic plasma concentration, change from baseline (LS mean (SE)) / Stearic plasma concentration, end-of-treatment (mean): week 12
Method: A multi-center, placebo-controlled randomized, double-blind, 12-week study with an open-label extension is performed to evaluate the efficacy and safety of AMR101 in patients with fasting triglyceride levels ≧500 mg/dL. The primary objective of the study is to determine the efficacy of AMR101 2 g daily and 4 g daily, compared to placebo, in lowering fasting TG levels in patients with fasting TG levels ≧500 mg/dL and ≦1500 mg/dL (≧5.65 mmol/L and ≦16.94 mmol/L).
Eligible patients will be randomly assigned at Visit 4 (Week 0) to receive orally AMR101 2 g daily, AMR101 4 g daily, or placebo for the 12-week double-blind treatment period. AMR101 is provided in 1 g liquid-filled, oblong, gelatin capsules. The matching placebo capsule is filled with light liquid paraffin and contains 0 g of AMR101. During the double-blind treatment period, patients will take 2 capsules (AMR101 or matching placebo) in the morning and 2 in the evening for a total of 4 capsules per day. Patients in the AMR101 2 g/day treatment group will receive 1 AMR101 1 g capsule and 1 matching placebo capsule in the morning and in the evening. Patients in the AMR101 4 g/day treatment group will receive 2 AMR101 1 g capsules in the morning and evening.
Lipids were extracted from plasma and RBC suspensions and converted into fatty acid methyl esters for analysis using a standard validated gas chromatography/flame ionization detection method. Fatty acid parameters were compared between EPA treatment groups and placebo using an ANCOVA model with treatment, gender, type of statin therapy, and presence of diabetes as factors, and the baseline parameter value as a covariate. LSMs, SEs, and 2-tailed 95% confidence intervals for each treatment group and for each comparison were determined.

[1] = 2 g/day vs placebo, week 12, P <0.0001
[2] = 4 g/day vs placebo, week 12, P <0.0001

Structure (SMILES): CC/C=C\C/C=C\C/C=C\C/C=C\C/C=C\CCCC(=O)OCC [IPE, Icosapent ethyl]
- Dose dependence of EPA concentration in plasma (in words) (2 g/day or 4 g/day, 12 weeks): significantly increased EPA concentrations in a linear, dose-dependent fashion
- Proportion of monounsaturated fatty acids to total fatty acids in plasma, mean placebo-adjusted percent change from baseline (2 g/day vs placebo, week 12, P 0.0009): −7.4%
- Palmitic plasma concentration, mean placebo-adjusted percent change from baseline (2 g/day vs placebo, week 12, P 0.0011): −23.9%
- Oleic plasma concentration, mean placebo-adjusted percent change from baseline (2 g/day vs placebo, week 12, P 0.0023): −23.8%
- Stearic plasma concentration, mean placebo-adjusted percent change from baseline (2 g/day vs placebo, week 12, P 0.0040): −20.7%
- Linoleic plasma concentration, mean placebo-adjusted percent change from baseline (2 g/day vs placebo, week 12, P 0.0136): −15.2%
- Proportion of total omega-6 fatty acids to total fatty acids in plasma, mean placebo-adjusted percent change from baseline (2 g/day vs placebo, week 12, P 0.3044): 3.2%
- DHA plasma concentration, mean placebo-adjusted percent change from baseline (2 g/day vs placebo, week 12, P 0.7217): −2.3%
- Proportion of saturated fatty acids to total fatty acids in plasma, mean placebo-adjusted percent change from baseline (2 g/day vs placebo, week 12, P 0.8076): −0.4%
- AA plasma concentration, mean placebo-adjusted percent change from baseline [1]: −16.4%
- Proportion of total omega-3 fatty acids to total fatty acids in plasma, mean placebo-adjusted percent change from baseline [1]: 68.4%
- Ratio of AA/EPA in plasma, mean placebo-adjusted percent change from baseline [1]: −88.4%
- Ratio of n-3/n-6 FA in plasma, mean placebo-adjusted percent change from baseline [1]: 76.8%
- AA plasma concentration, change from baseline (LS mean (SE)) (2 g/day): −36.7 (10.6)
- AA plasma concentration, end-of-treatment (mean) (2 g/day): 327.3
- DHA plasma concentration, change from baseline (LS mean (SE)) (2 g/day): −13.1 (6.2)
- DHA plasma concentration, end-of-treatment (mean) (2 g/day): 104.8
- Linoleic plasma concentration, change from baseline (LS mean (SE)) (2 g/day): −227 (121.4)
- Linoleic plasma concentration, end-of-treatment (mean) (2 g/day): 1981
- Oleic plasma concentration, change from baseline (LS mean (SE)) (2 g/day): −414 (142.9)
- Oleic plasma concentration, end-of-treatment (mean) (2 g/day): 2018
- Palmitic plasma concentration, change from baseline (LS mean (SE)) (2 g/day): −353 (126.9)
- Palmitic plasma concentration, end-of-treatment (mean) (2 g/day): 2015
- Proportion of monounsaturated fatty acids to total fatty acids in plasma, change from baseline (LS mean (SE)) (2 g/day): −1.4 (0.5) mol %
- Proportion of monounsaturated fatty acids to total fatty acids in plasma, end-of-treatment (mean (SD)) (2 g/day): 29.5 (4.9) mol %
- Proportion of saturated fatty acids to total fatty acids in plasma, change from baseline (LS mean (SE)) (2 g/day): −0.3 (0.5) mol %
- Proportion of saturated fatty acids to total fatty acids in plasma, end-of-treatment (mean (SD)) (2 g/day): 35.8 (3.7) mol %
- Proportion of total omega-3 fatty acids to total fatty acids in plasma, change from baseline (LS mean (SE)) (2 g/day): 2.0 (0.2) mol %
- Proportion of total omega-3 fatty acids to total fatty acids in plasma, end-of-treatment (mean (SD)) (2 g/day): 4.8 (1.3) mol %
- Proportion of total omega-6 fatty acids to total fatty acids in plasma, change from baseline (LS mean (SE)) (2 g/day): −0.2 (0.7) mol %
- Proportion of total omega-6 fatty acids to total fatty acids in plasma, end-of-treatment (mean (SD)) (2 g/day): 29.8 (6.8) mol %
- Ratio of AA/EPA in plasma, change from baseline (LS mean (SE)) (2 g/day): −9.6 (0.5)
- Ratio of AA/EPA in plasma, end-of-treatment (mean) (2 g/day): 2.3
- Ratio of n-3/n-6 FA in plasma, change from baseline (LS mean (SE)) (2 g/day): 0.07 (0.009)
- Ratio of n-3/n-6 FA in plasma, end-of-treatment (mean) (2 g/day): 0.17
- Stearic plasma concentration, change from baseline (LS mean (SE)) (2 g/day): −57.8 (33.3)
- Stearic plasma concentration, end-of-treatment (mean) (2 g/day): 541.5
- Oleic plasma concentration, mean placebo-adjusted percent change from baseline (4 g/day vs placebo, week 12, P 0.0001): −31.9%
- Stearic plasma concentration, mean placebo-adjusted percent change from baseline (4 g/day vs placebo, week 12, P 0.0002): −28.4%
- Linoleic plasma concentration, mean placebo-adjusted percent change from baseline (4 g/day vs placebo, week 12, P 0.0003): −23.7%
- Proportion of monounsaturated fatty acids to total fatty acids in plasma, mean placebo-adjusted percent change from baseline (4 g/day vs placebo, week 12, P 0.0008): −7.7%
- Proportion of saturated fatty acids to total fatty acids in plasma, mean placebo-adjusted percent change from baseline (4 g/day vs placebo, week 12, P 0.1049): −2.8%
- DHA plasma concentration, mean placebo-adjusted percent change from baseline (4 g/day vs placebo, week 12, P 0.7115): 2.4%
- Proportion of total omega-6 fatty acids to total fatty acids in plasma, mean placebo-adjusted percent change from baseline (4 g/day vs placebo, week 12, P 0.8846): 0.5%
- AA plasma concentration, mean placebo-adjusted percent change from baseline [2]: −26.8%
- Palmitic plasma concentration, mean placebo-adjusted percent change from baseline [2]: −34.4%
- Proportion of total omega-3 fatty acids to total fatty acids in plasma, mean placebo-adjusted percent change from baseline [2]: 132.7%
- Ratio of AA/EPA in plasma, mean placebo-adjusted percent change from baseline [2]: −99.4%
- Ratio of n-3/n-6 FA in plasma, mean placebo-adjusted percent change from baseline [2]: 145.8%
- AA plasma concentration, change from baseline (LS mean (SE)) (4 g/day): −76.2 (11.3)
- AA plasma concentration, end-of-treatment (mean) (4 g/day): 280.3
- DHA plasma concentration, change from baseline (LS mean (SE)) (4 g/day): −4.5 (6.6)
- DHA plasma concentration, end-of-treatment (mean) (4 g/day): 118.1
- Linoleic plasma concentration, change from baseline (LS mean (SE)) (4 g/day): −309 (128.1)
- Linoleic plasma concentration, end-of-treatment (mean) (4 g/day): 1882
- Oleic plasma concentration, change from baseline (LS mean (SE)) (4 g/day): −546 (154.0)
- Oleic plasma concentration, end-of-treatment (mean) (4 g/day): 1885
- Palmitic plasma concentration, change from baseline (LS mean (SE)) (4 g/day): −560 (138.1)
- Palmitic plasma concentration, end-of-treatment (mean) (4 g/day): 1789
- Proportion of monounsaturated fatty acids to total fatty acids in plasma, change from baseline (LS mean (SE)) (4 g/day): −1.7 (0.5) mol %
- Proportion of monounsaturated fatty acids to total fatty acids in plasma, end-of-treatment (mean (SD)) (4 g/day): 28.7 (4.0) mol %
- Proportion of saturated fatty acids to total fatty acids in plasma, change from baseline (LS mean (SE)) (4 g/day): −1.2 (0.5) mol %
- Proportion of saturated fatty acids to total fatty acids in plasma, end-of-treatment (mean (SD)) (4 g/day): 34.8 (3.5) mol %
- Proportion of total omega-3 fatty acids to total fatty acids in plasma, change from baseline (LS mean (SE)) (4 g/day): 3.8 (0.2) mol %
- Proportion of total omega-3 fatty acids to total fatty acids in plasma, end-of-treatment (mean (SD)) (4 g/day): 6.7 (1.9) mol %
- Proportion of total omega-6 fatty acids to total fatty acids in plasma, change from baseline (LS mean (SE)) (4 g/day): −0.9 (0.7) mol %
- Proportion of total omega-6 fatty acids to total fatty acids in plasma, end-of-treatment (mean (SD)) (4 g/day): 29.8 (6.2) mol %
- Ratio of AA/EPA in plasma, change from baseline (LS mean (SE)) (4 g/day): −10.8 (0.5)
- Ratio of AA/EPA in plasma, end-of-treatment (mean) (4 g/day): 1.2
- Ratio of n-3/n-6 FA in plasma, change from baseline (LS mean (SE)) (4 g/day): 0.4 (0.009)
- Ratio of n-3/n-6 FA in plasma, end-of-treatment (mean) (4 g/day): 0.24
- Stearic plasma concentration, change from baseline (LS mean (SE)) (4 g/day): −101 (35.4)
- Stearic plasma concentration, end-of-treatment (mean) (4 g/day): 500.3
